The data set in a line: gradient 5% acetonitrile 3 min, to 50% in 2 min, to 85% in 15 min, held 3 min, 100 µL/min. Particulars: column: Zorbax Extend-C18 2.1 x 50 mm; eluents: water / acetonitrile, 0.1% formic acid. An outline of the steps:
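Retention times of pure standards were taken from adduct peaks that were selected by computer and manually inspected. Over 3 months, mixtures of ~100 molecules were run by HPLC–quadrupole time-of-flight mass spectrometry in positive and negative ionization mode. The Zorbax Extend-C18 column (2.1 × 50 mm, 1.8 μm) ran at 100 μL/min in water and acetonitrile, each containing 0.1% formic acid, with 40 μL dead volume and 900 μL dwell volume.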
Consider `Cc1nc2ccccc2n1Cc1nnc2sc(-c3cccnc3)nn12`, for which the RP-LC retention time is 550 s. As for `Cc1ccc(-c2csc(NC(=O)c3cccs3)n2)cc1C`, the RP-LC retention time stood at 1180 s. Under `O=C(Cc1ccccc1)N1[C@H]2CC[C@@H]1c1cnc(-c3ccccc3)nc1C2` stands 898 s. Under `COc1ccc(CN2CCC(C3CCNC3)CC2)c(OC)c1` (stereo unspecified) stands 548 s; under `Cc1nc2c(sc3nc(-c4ccccc4)ccc32)c(=O)n1CC(=O)NCCc1ccc(Cl)cc1`, 1080 s; under `CCc1nc2cccnc2n1-c1ccc(C(=O)NC)cc1`, 659 s.

Consider `Cc1cccc(-c2nc(N)n(C(=O)C(C)C)n2)c1`, for which the RP-LC retention time came to 970 s. The figure for `Cc1oc2ccn(Cc3ccccc3F)c(=O)c2c1C(=O)NCc1cc(F)cc(F)c1` is 827 s. Regarding `CCN1c2ccc(C)cc2C(=O)NC12CCN(C(=O)c1ccccc1F)CC2`, the RP-LC retention time was determined as 806 s.

For the compound `CN(C)c1ccc(/C=C/C(=O)c2cc(Cl)ccc2O)cc1`, the RP-LC retention time was 1120 s.

Regarding `COCC1CN(Cc2cn[nH]c2-c2ccc(F)cc2)CCC1(F)F` (stereo unspecified), the RP-LC retention time was determined as 619 s. Under `O=C(CN(c1ccc(F)cc1)S(=O)(=O)c1cccnc1)NCCc1ccccc1` stands 789 s; under `COc1ccc(-c2cc(C(=O)O)c3ccccc3n2)cc1`, 645 s.

`O=C(NCc1ccco1)c1csc(N2CCN(c3ccc(F)cc3)CC2)n1` showed an RP-LC retention time of 991 s.

Compound `COCCCNC(=O)C1CCCN(c2nccc(C)n2)C1` (stereo unspecified) showed an RP-LC retention time of 592 s. The figure for `Cc1cc(C)cc(NC(=O)N2CCC(n3cnc4cc(F)ccc4c3=O)CC2)c1` is 846 s. `Cc1ccc(C2=NC3(CCN(C(C)C)CC3)NC(c3ccccc3O)C2)cc1` (stereo unspecified) had an RP-LC retention time of 612 s.

The compound `CC1CCN(Cc2nc(Cn3ccn4nc(-c5ccc(F)cc5)cc4c3=O)no2)CC1` yielded an RP-LC retention time of 703 s. The figure for `Cc1cc(C)cc(-c2nnc(Cc3nc(-c4ccccc4C)no3)o2)c1` is 1200 s; for `O=C(NC1CCCC1)C1CCCN(c2ccc(=O)n(-c3cccc(F)c3)n2)C1` (stereo unspecified) it is 784 s; for `CCn1c(=O)c2c(cc(C)n2C)n(CC(=O)Nc2ccc(OC)c(Cl)c2)c1=O` it is 794 s. The figure for `COc1ccc(CNC(=O)Cn2ccc3ccc(-c4nnc(C)o4)cc32)cc1` is 1080 s; for `CNC(=O)c1cc(-c2ccccc2)n(C)c1C` it is 591 s. Under `CCOc1ccc(-n2c(N3CCSCC3)nc3cc(C(=O)OC)ccc3c2=O)cc1` stands 800 s; under `Cn1c(C(=O)NC2CC2)cc2c1CCN(Cc1ccc(F)cc1)C2`, 590 s. For `O=C(Nc1cccc(OCc2nnc(-c3ccc(F)cc3)o2)c1)C1CC(=O)N(c2ccccc2)C1` (stereo unspecified), the RP-LC retention time was 895 s. Under `CCS(=O)(=O)N1CC(=O)N(c2cccc(Cl)c2)C(C)(C(=O)NC2CCCCCC2)C1` (stereo unspecified) stands 895 s; under `O=C(Oc1coc(CSc2ncccn2)cc1=O)c1ccco1`, 667 s.

In the case of `O=C(NCCOc1cccc2cccnc12)c1cnn(-c2ccccc2)n1`, the RP-LC retention time was 623 s. The figure for `COc1ccc2c(c1)C1(CCN(C(=O)Nc3cccc(C)c3)C1)C(=O)N2` (stereo unspecified) is 730 s; for `Cc1ccc(CNC(=O)CCCn2c3ccccc3c3cnn(C)c(=O)c32)o1` it is 814 s. Under `O=C(NCCc1cccs1)C1CCN(c2cc(N3CCCCC3)ncn2)CC1` stands 672 s. Under `COc1ccc(-c2nnc3n2CCN(Cc2cn(C)nc2C)C3)cc1` stands 552 s; under `COc1ccc(Cl)c2c(=O)c3c([nH]c12)CCN(CC(=O)Nc1ccc(C)cc1)C3`, 632 s. `O=C(NCc1ccco1)C1CCN(c2ncccc2-c2nc(-c3cccc(Cl)c3)no2)CC1` showed an RP-LC retention time of 1060 s. In the case of `CCCn1cc(-c2nc(-c3ccncc3)no2)c(=O)c2cc(F)ccc21`, the RP-LC retention time is 728 s. The figure for `Cc1ccc(-c2noc(Cn3cnc4c(cnn4-c4ccc(C)c(Cl)c4)c3=O)n2)cc1` is 1270 s; for `COc1ccc(C(O)CN2CCN(c3ncccn3)CC2)cc1` (stereo unspecified) it is 747 s. Under `CC(C)c1cc(C(=O)Nc2ccccc2F)no1` stands 1020 s; under `Cc1cccc(Nc2c(-c3ccccc3)nc3ncccn23)c1C`, 671 s. In turn, `Cc1ccc(-c2coc(-c3ccc(NC(=O)NC4CCCC4)cc3)n2)c(C)c1` registered an RP-LC retention time of 1180 s. Under `CCN(C(=O)CN1C(=O)NC2(CCC(C)CC2)C1=O)c1cccc(C)c1` (stereo unspecified) stands 666 s. Under `COc1ccc(NC(=O)C2CCCN(c3nnc4ccc(Cl)cn34)C2)c(OC)c1` (stereo unspecified) stands 701 s; under `CCc1ccc(NC(=O)N2CCN(CCn3c(CC)nc4cccnc43)CC2)cc1`, 632 s; under `CCNC(=O)c1n[nH]c2c1CN(C(=O)c1cc(F)ccc1F)CC2`, 648 s. The figure for `Cc1cc(NC(=O)c2ccc3c(c2)nnn3Cc2ccccc2)no1` is 819 s; for `Cc1ccc(-c2nc3cc(C)ccn3c2Nc2ccccc2C)cc1` it is 770 s. In the case of `O=c1ccc(N2CCCN(S(=O)(=O)c3cccc(Cl)c3)CC2)nn1-c1ccccc1`, the RP-LC retention time is 868 s. The figure for `CCCCN(CCNc1ncnc2onc(-c3ccccc3OC)c12)Cc1ccco1` is 726 s. Under `Cc1cn(C)nc1C(=O)N(CCN1CCOCC1)c1nc2c(C)ccc(C)c2s1` stands 648 s. Under `Cc1cc(-c2nnc(-c3ccccc3)o2)c(C)n1CC(=O)NCc1cccc(Cl)c1` stands 973 s; under `COc1ccc(C(=O)NCC(c2cccn2C)N2CCCC2)c(OC)c1OC` (stereo unspecified), 566 s. Take `O=C(c1cnc2ccccc2n1)N1CCN(Cc2ccsc2)CC1`: the RP-LC retention time came to 556 s. The figure for `O=S(=O)(c1cccc2cccnc12)N1CCc2nc(-c3ccc(Cl)cc3)ncc2C1` is 1140 s; for `Cc1cc(N2CCC(NC(=O)NCc3cccc(F)c3)C2=O)ccc1F` (stereo unspecified) it is 903 s.

Consider `COc1ccc(NC(=O)c2nc(C)oc2C)cc1F`, for which the RP-LC retention time turned out to be 843 s.

Compound `COc1ccc(-n2ccc(=O)c(-c3nc(-c4ccc(C)cc4)no3)n2)cc1` returned an RP-LC retention time of 932 s. With `COCCNC(=O)c1nnc(-c2ccc(S(=O)(=O)N3CCC(C)CC3)cc2)o1`, the RP-LC retention time was 838 s.

For `Cn1cc(-c2cc3n(n2)CCCN3C(=O)CCC(=O)N2CCCCCC2)c2ccccc21`, the RP-LC retention time amounted to 837 s. Under `Cc1ccc(NC(=O)N2CCC3(C2)c2nc[nH]c2CCN3C)c(C)c1` (stereo unspecified) stands 568 s. Turning to `CCOc1ccccc1NC(=O)Cn1nc2c(Oc3cccc(F)c3)nccn2c1=O`, the RP-LC retention time came out at 906 s. The figure for `CC(C)n1c(=O)sc2cc(S(=O)(=O)N3CCC(C(=O)Nc4ccc(F)cc4)CC3)ccc21` is 973 s; for `CCc1ccccc1NC(=O)C1CCC(=O)N1S(=O)(=O)c1ccc(C)c(C)c1` (stereo unspecified) it is 978 s. The figure for `COC(=O)CNC(=O)C1COc2ccc(NC(=O)c3ccc(Br)cc3)cc2C1` (stereo unspecified) is 794 s. The figure for `CCCN(CC1CCOC1)C(=O)Nc1cccc(Cl)c1C` (stereo unspecified) is 835 s; for `CC(C)=C(c1ccc(Cl)cc1)c1c(N)ncnc1N` it is 705 s; for `COc1ccc(C)cc1NC(=O)Cn1nc(C(=O)N2CCN(C)CC2)cc1C` it is 583 s. The compound `CN(C)c1ccc(C(=O)N2CCC(COc3ccc(C(=O)N4CCCCC4)cc3)CC2)cc1` yielded an RP-LC retention time of 929 s.

For the compound `Cc1ccc(C)c(-c2coc(-c3ccc(NC(=O)NCc4cccc(F)c4)cc3)n2)c1`, the RP-LC retention time is 1190 s. Under `CCCCN1CCN(C(=O)C2CCCN(c3cnc4nccnc4c3)C2)CC1` (stereo unspecified) stands 569 s; under `O=C(Nc1cc(F)cc(F)c1)NC1CCN(c2ccc(F)cc2)C1=O` (stereo unspecified), 895 s; under `CC1Cc2ccccc2N1C(=O)c1ccc(=O)n(CCC(=O)NC2CCCCC2)n1` (stereo unspecified), 793 s. For the compound `CCOC(=O)C1CCN(Cc2nc3nc(C)cc(N4CCOCC4)n3n2)CC1`, the RP-LC retention time worked out at 576 s.

Compound `CN(C)c1ncncc1N1CCC(C(=O)NC2CCCCC2)CC1` registered an RP-LC retention time of 607 s. Under `Cc1c(C(C)(C(=O)O)c2c(C)n(C)c3ccccc23)c2ccccc2n1C` stands 677 s; under `O=C(NCc1ccc2c(c1)OCO2)C1CCCN(c2ccc(=O)n(-c3cccc(Cl)c3)n2)C1` (stereo unspecified), 857 s.

In turn, `Cc1ccc(S(=O)(=O)N2CCC(C)(C(=O)NCc3ccc(F)cc3)CC2)cc1` had an RP-LC retention time of 942 s. The figure for `CCn1ccc2c(cc(C(=O)Nc3cccc(OC)c3)n2C)c1=O` is 748 s; for `COc1ccc(OC)c(CNC(=O)c2cn3ccccc3n2)c1` it is 665 s; for `CCNS(=O)(=O)c1cc(-c2c(CC)noc2NC(C)=O)ccc1OC` it is 668 s. The figure for `COC(=O)c1ncn2c1C(=O)N(c1ccc(F)cc1C)C(C)(C(=O)NCc1ccccc1)C2` (stereo unspecified) is 708 s.

(Values after the METLIN SMRT retention time set (Domingo-Almenara et al. 2019).)
